According to US20210179940A1, “WIDE TEMPERATURE RANGE AND HIGH PHOTOCHEMICAL STABILITY SMECTIC LIQUID CRYSTAL COMPOSITIONS WITH A MONOLAYER SMECTIC A PHASE (SMA1), METHOD OF OBTAINING THEREOF AND DEVICES UTILIZING THEREOF” (WOJSKOWA AKADEMIA TECHNICZNA, priority 2017, published 2021):
Like-named read-outs stand apart in the source and are kept apart here.

Columns and labels:
[1] = solubility of ionic compounds in fluorobenzene
Description: Fluorobenzene was used as solvent because it is chemically similar to the liquid crystalline composition used here.
The examination was made in the following way: always the same mole amount of a ionic compound (0.00004 mol) was placed in 2 cm^3 of fluorobenzene. The mixture was mixed to dissolve the compound or to obtain equilibrium between the saturated solution and the solid. When a part of the compound was dissolved only, the sample of the saturated solution was taken (0.5 ml). The solvent was evaporated to dryness, the rest was weighted. Knowing the residue amount, the solubility was calculated.

[2] = resistivity of fluorobenzene solutions of ionic compounds (bridge method); assay type: physicochemical; settings: for resistivity 10 kHz / resistivity 50 Hz: solution in C6H5F, 25° C.
Description: The resistivity of the solution was measured by the bridge method using a Wyne Kerr Precision Component Analyzer 6425 and the measuring cells with electrodes of active area of 12.7 mm×12.7 mm. The electrodes were made of ITO. No orienting layers were deposited. The cell formed with two substrates with electrodes mentioned above was filled with the solution by capillary forces. The gap between electrodes was approx. 14.6 μm.

[3] = conductivity of doped smectic A composition 18 in 15 μm cell; assay type: physicochemical; settings: prepared in fluorobenzene, 100 Hz, RT
Excerpt: The glass cells with a gap of 15 μm filled with the liquid crystal composition were used to measure conductivity and such a parameters of the DS effect as threshold voltage and saturation voltage. […] The orienting layer providing a homeotropic orientation of the molecular director of the smectic composition was obtained using a thin layer of SE1211 (by Nissan Chem.) polyimide, which was deposited on ITO electrodes with a spincoating method, then dried and cured. The testing cells were filled with the liquid crystals composition from the isotropic phase, and they were cooled to the room temperature (RT) and closed.
The components were carefully mixed and then heated to temperature of 90° C. to evaporate the solvent. Then heating was continued under lower pressure (at 0.2 mmHg) for the total removal of the solvent and the composition was carefully mixed by shaking it at the isotropic state. […]

[4] = conductivity of doped smectic A composition 21 in 15 μm cell; assay type: physicochemical; settings: RT
Excerpt: The glass cells with a gap of 15 μm filled with the liquid crystal composition were used to measure conductivity and such a parameters of the DS effect as threshold voltage and saturation voltage. Transparent electrodes were formed from indium-tin oxide (ITO) of specific resistivity 100 Ohm/cm^2 and with surface 1.27×1.27 cm^2. The orienting layer providing a homeotropic orientation of the molecular director of the smectic composition was obtained using a thin layer of SE1211 (by Nissan Chem.) polyimide, which was deposited on ITO electrodes with a spincoating method, then dried and cured. The testing cells were filled with the liquid crystals composition from the isotropic phase, and they were cooled to the room temperature (RT) and closed.
In Table 6 the properties of the composition 21 doped with an amidinium salt or potassium complex of a crown ether are compared. The composition 21 has the phase sequence Cr-SmA1-N-Iso and the higher value of dielectric anisotropy than composition 18.

[5] = solubility in organic solvents noted at synthesis; assay type: physicochemical; settings: solvents named in the value
[6] = composition 18, dopant 8.78 · 10^−3 mol/kg
[7] = composition 21, dopant 6.58 · 10^−3 mol/kg, f = 100 Hz
[8] = composition 18, dopant 6.58 · 10^−3 mol/kg

Compound	solubility in C6H5F [1]	resistivity 10 kHz [2]	resistivity 50 Hz [2]	conductivity σ [3, 6]	solubility in C6H5F ([1]; fluorobenzene, 25° C.) [mol/dcm^3]	further results
1-hexadecyl-1,8-diazabicyclo[5,4,0]undec-7-enium 3,5-difluoro-4-cyanophenolate [II.16n]	>0.02 mol/dcm^3	3.8 · 10^5 Ohm · cm	3.9 · 10^5 Ohm · cm	1.8 · 10^−8 Ohm^−1cm^−1		resistivity of I.16b, times higher than that of the compound ([2]; solution in fluorobenzene): 140 times
1-hexadecyl-1,8-diazabicyclo[5.4.0]undec-7-enium 3,4-difluorophenolate [II.16k]	>0.02 >0.02 >0.02 >0.02 mol/dcm^3					
1-hexadecyl-1,8-diazabicyclo[5.4.0]undec-7-enium 4-dodecylbenzenesulphonate [II.16g12]		1.9 · 10^6 Ohm · cm	2.1 · 10^6 Ohm · cm	1.1 · 10^−9 Ohm^−1cm^−1	>0.02	specific conductivity σ [4, 7]: 7.42 · 10^−10 Ohm^−1cm^−1
CCCCCCCCCCCCCCCC[N+](C)(C)C.[Br-] [I.16b, hexadecyltrimethylammonium bromide, reference compound]	0.00274 mol/dcm^3	5.2 · 10^7 Ohm · cm	5.0 · 10^7 Ohm · cm			solubility compared with the ionic compounds of the disclosure [1]: lower at least ten times
CC[N+]12CCCCCC1=NCCC2.[Br-] (stereo not shown) [II.2b, 1-ethyl-1,8-diazabicyclo[5.4.0] undec-7-enium bromide]					0.0077	solubility [5]: well soluble in ethanol and ethyl acetate; conductivity σ [3, 8]: 3.0 · 10^−9 Ohm^−1cm^−1
CCCCCCCCCCCCCCCC[N+]1=C2CCCCCN2CCC1 [II.16b, 1-hexadecyl-1,8-diazabicyclo[5.4.0]undec-7-enium bromide]	>0.02 >0.02 >0.02 >0.02 mol/dcm^3					solubility [5]: well soluble in methanol and chloroform
CCCCCCCCCCCCCCCC[N+]1=C2CCCCCN2CCC1 [II.16c, 1-Hexadecyl-1,8-diazabicyclo[5.4.0]undec-7-enium chlorate (VII)]	>0.02 >0.02 >0.02 >0.02 mol/dcm^3	0.84 · 10^6 Ohm · cm	1.0 · 10^6 Ohm · cm	4.6 · 10^−10 Ohm^−1cm^−1		solubility [5]: well soluble in methanol and ethyl acetate
CCCCCCCCCCCCCCCC[N+]1=C2CCCCCN2CCC1 [II.16d, 1-hexadecyl-1,8-diazabicyclo[5.4.0]undec-7-enium 1,1,1-trifluoromethanesulphonate]	>0.02 >0.02 >0.02 >0.02 mol/dcm^3					
C1COCCOCCOCCOCCOCCO1.CCCCCCCCCCCCc1ccc(S(=O)(=O)[O-])cc1.[K+] [III.g12, complex of 18-crown-6 ether with potassium 4-dodecylbenzenesulphonate]					>0.02	specific conductivity σ ([4]; composition 21, 0.1 wt % dopant + 0.3 wt % stabilizer of formula 29, f = 100 Hz): 7.0 · 10^−9 Ohm^−1cm^−1
C1COCCOCCOCCOCCOCCO1.[K+].[O-]c1ccc(F)c(F)c1 [IIIk, complex of 18-crown-6 ether with potassium 3,4-difluorophenolate]					> 0.02	conductivity σ [3, 8]: 2.7 · 10^−9 Ohm^−1cm^−1; conductivity σ ([3]; composition 18, dopant 6.58 · 10^−3 mol/kg, listed as III.k): 2.7·10^−9 Ohm^−1cm^−1
CCCCCCCCCCCCc1ccc(S(=O)(=O)[O-])cc1.[K+].c1ccc2c(c1)OCCOCCOc1ccccc1OCCOCCO2 [IVg12, Complex of dibenzo-18-crown-6 ether with potassium 4-dodecylbenzenesulphonate]		4.5 · 10^5 Ohm · cm	6.0 · 10^5 Ohm · cm	2.7 · 10^−10 Ohm^−1cm^−1	>0.02	specific conductivity σ [4, 7]: 4.68 · 10^−10 Ohm^−1cm^−1
CCCCCCCCc1ccc([O-])cc1.[K+].c1ccc2c(c1)OCCOCCOc1ccccc1OCCOCCO2 [IVh8, complex of dibenzo-18-crown-6 ether with potassium 4-octylphenolate]				1.4 · 10^−10 Ohm^−1cm^−1	0.0107	
[K+].[O-]c1ccc(F)c(F)c1.c1ccc2c(c1)OCCOCCOc1ccccc1OCCOCCO2 [IVk, complex of dibenzo-18-crown-6 ether with potassium 3,4-difluorophenolate]		0.95 · 10^6 Ohm · cm	1.1 · 10^6 Ohm · cm	4.1 · 10^−9 Ohm^−1cm^−1	> 0.02	
N#Cc1c(F)cc([O-])cc1F.[K+].c1ccc2c(c1)OCCOCCOc1ccccc1OCCOCCO2 [IVn, complex of dibenzo-18-crown-6 ether with potassium 3,5-difluoro-4-cyanophenolate]		4.6 · 10^5 Ohm · cm	4.2 · 10^5 Ohm · cm	8.1 · 10^−9 Ohm^−1cm^−1	>0.02	conductivity σ ([3]; composition 18, dopant 2.19 · 10^−3 mol/kg): 2.19 · 10^−9 Ohm^−1cm^−1
complex of 18-crown-6 ether with potassium bromide [IIIb]						conductivity σ [3, 8]: 1.1 · 10^−9 Ohm^−1cm^−1
complex of 18-crown-6 ether with sodium dodecyl-1-sulphonate [V.e12]						conductivity σ [3, 8]: 3.7 · 10^−10 Ohm^−1cm^−1
complex of dibenzo-18-crown-6 ether with potassium bromide [IVb]						conductivity σ [3, 8]: 2.2 · 10^−10 Ohm^−1cm^−1
complex of dibenzo-18-crown-6 ether with potassium chlorate (VII) [IVc]		2.9 · 10^7 Ohm · cm	4.2 · 10^7 Ohm · cm	1.5 · 10^−10 Ohm^−1cm^−1	< 0.002	resistivity ([2]; solution in fluorobenzene, frequency not stated): 4.2·10^7 Ohm·cm
